Test results: patent US20240148821A1, “PHARMACEUTICAL USE OF CYCLIC PEPTIDE COMPOUND” (CHUGAI SEIYAKU KABUSHIKI KAISHA, priority 2021, published 2024)
pIC50: −log10 of the molar value. Numbered stars: 1 amine (or outer) side, 2 acyl side, 3 side chain; on linkers, the order of the positions; unused ones are H or OH. Bridge positions count the residues as written; N and C are the ends. Square brackets hold non-standard residues; d marks the D form. Peptide text beside a SMILES is read from it. * marks the point of attachment. hPhe(3,5-F2-4-CF3) = N[C@@H](CCc1cc(F)c(C(F)(F)F)c(F)c1)C(=O)O; hPhe(3-Cl-4-CF3) = N[C@@H](CCc1ccc(C(F)(F)F)c(Cl)c1)C(=O)O; NEtPhe(4-CF3) = CCN[C@@H](Cc1ccc(C(F)(F)F)cc1)C(=O)O; hPhe(4-CF3) = N[C@@H](CCc1ccc(C(F)(F)F)cc1)C(=O)O; 3Oxa8azabicyclo(3.2.1)octane = C1CC2COCC1N2*; NMePhe(4-Cl) = CN[C@@H](Cc1ccc(Cl)cc1)C(=O)O; NMedβ3hAla = C[C@H](CC(=O)[*:2])N(C)[*:1]; NMeGly(cPent) = CN[C@H](C(=O)O)C1CCCC1; Pro(4,4-F2) = O=C(O)[C@@H]1CC(F)(F)CN1; dβ3hPip = O=C(C[C@H]1CCCCN1[*:1])[*:2]; NMeCha = CN[C@@H](CC1CCCCC1)C(=O)O; NMeAhp(2) = CCCCC[C@H](NC)C(=O)O; NMeChg = CN[C@H](C(=O)O)C1CCCCC1; NMeF = CN[C@@H](Cc1ccccc1)C(=O)O; NMeD = CN[C@@H](CC(=O)O)C(=O)O; NMeL = CN[C@@H](CC(C)C)C(=O)O; NMeV = CN[C@H](C(=O)O)C(C)C; d(β3hA) = C[C@@H](N)CC(=O)O; NMeS = CN[C@@H](CO)C(=O)O; NMeA = CN[C@@H](C)C(=O)O; Piperidide = C1CCN(*)CC1; Pyrrolidide = C1CCN(*)C1; Ac5c = NC1(C(=O)O)CCCC1; Aze = O=C(O)[C@@H]1CCN1; Ac4c = NC1(C(=O)O)CCC1; Aib = CC(C)(N)C(=O)O; NEtG = CCNCC(=O)O; Sar = CNCC(=O)O; Propyl = CCC*

These compounds were tested against protein-protein interaction between Kras and SOS1 (biotin-tagged human Kras loaded with GDP, His-tagged human SOS1) (Homo sapiens (Human), UniProt P01116, G12D) (assay: Protein-protein interaction inhibition between Kras and SOS1 (KrasG12D-SOS PPI) using AlphaScreen). Conditions: AlphaScreen; biotin-tagged human Kras loaded with GDP, His-tagged human SOS1; read-out: KRAS G12D-SOS PPI IC50.
Format: biochemical

How did the pIC50 turn out when `CC[C@H](C)[C@@H]1NC(=O)[C@H](CC(C)C)N(C)C(=O)C[C@@H](C(=O)N2CCCCC2)N(C)C(=O)[C@H](C2CCCCC2)N(C)C(=O)C2(CCCC2)NC(=O)CN(CC)C(=O)[C@H](CCc2ccc(C(F)(F)F)c(Cl)c2)NC(=O)CN(C)C(=O)[C@H](CC2CCCCC2)N(C)C(=O)CN(C)C(=O)CN(C)C1=O` [Compound 160] ([NMeL]I[Sar][Sar][NMeCha][Sar][hPhe(3-Cl-4-CF3)][NEtG][Ac5c][NMeChg][NMeD]-Piperidide; lactam N-11) was run?
Its pIC50 is 9.00.

`CCCCC[C@H]1C(=O)N[C@@H]([C@@H](C)CC)C(=O)N[C@@H](C)C(=O)N2CC[C@H]2C(=O)N(C)[C@@H](COCCC)C(=O)N(C)CC(=O)N[C@@H](CCc2ccc(C(F)(F)F)c(Cl)c2)C(=O)N2CCC[C@H]2C(=O)NC2(CCCC2)C(=O)N(C)[C@@H](C2CCCC2)C(=O)N(C)[C@H](C(=O)N2C3CCC2COC3)CC(=O)N1C` [Compound 163] ([NMeAhp(2)]IA[Aze][NMeS](Propyl)[Sar][hPhe(3-Cl-4-CF3)]P[Ac5c][NMeGly(cPent)][NMeD]-{3Oxa8azabicyclo(3.2.1)octane}; lactam N-11) was tested. Which pIC50 did it give?
The pIC50 was 8.21.

How did the pIC50 turn out when `CC[C@H](C)[C@@H]1NC(=O)[C@H](C)N(C)C(=O)C[C@@H](C)N(C)C(=O)[C@H](CC(C)C)NC(=O)C(C)(C)NC(=O)[C@H](CC(C)C)NC(=O)[C@H](CCc2ccc(C(F)(F)F)cc2)NC(=O)CN(C)C(=O)[C@H](Cc2ccc(Cl)cc2)N(C)C(=O)CN(C)C(=O)CN(C)C1=O` [Compound 170] (cyclo([Aib]L[NMedβ3hAla][NMeA]I[Sar][Sar][NMePhe(4-Cl)][Sar][hPhe(4-CF3)]L)) was run?
Its pIC50 is 6.46.

`CC[C@H](C)[C@@H]1NC(=O)[C@H](CC(C)C)N(C)C(=O)C[C@@H](C)NC(=O)[C@H](C(C)C)N(C)C(=O)C2(CCCC2)NC(=O)[C@@H]2CCCN2C(=O)[C@H](CCc2ccc(C(F)(F)F)c(Cl)c2)NC(=O)CN(C)C(=O)[C@H](CC2CCCCC2)N(C)C(=O)[C@@H]2CCN2C(=O)[C@@H]2CCN2C1=O` [Compound 181] (cyclo([Ac5c][NMeV][d(β3hA)][NMeL]I[Aze][Aze][NMeCha][Sar][hPhe(3-Cl-4-CF3)]P)) was tested. Which pIC50 did it give?
The pIC50 was 6.89.

`CC[C@H](C)[C@@H]1NC(=O)[C@H](CC(C)C)N(C)C(=O)C[C@@H](C(=O)N2CCCCC2)N(C)C(=O)[C@H](C2CCCC2)N(C)C(=O)C2(CCCC2)NC(=O)[C@@H]2CCCN2C(=O)[C@H](CCc2ccc(C(F)(F)F)c(Cl)c2)NC(=O)CN(C)C(=O)[C@H](C2CCCC2)N(C)C(=O)[C@@H]2CCN2C(=O)[C@H](C)N(C)C1=O` [Compound 182] ([NMeL]I[NMeA][Aze][NMeGly(cPent)][Sar][hPhe(3-Cl-4-CF3)]P[Ac5c][NMeGly(cPent)][NMeD]-Piperidide; lactam N-11) was tested. Which pIC50 did it give?
The pIC50 was 9.01.

How did the pIC50 turn out when `CC[C@H](C)[C@@H]1NC(=O)[C@H](C(C)C)N(C)C(=O)C[C@H]2CCCCN2C(=O)[C@H](CC(C)C)N(C)C(=O)C2(CCCC2)NC(=O)[C@H](CC(C)C)N(C)C(=O)[C@H](CCc2ccc(C(F)(F)F)cc2)NC(=O)CN(C)C(=O)[C@H](Cc2ccc(Cl)cc2)N(C)C(=O)CN(C)C(=O)CN(C)C1=O` [Compound 189] (cyclo([Ac5c][NMeL][dβ3hPip][NMeV]I[Sar][Sar][NMePhe(4-Cl)][Sar][hPhe(4-CF3)][NMeL])) was run?
Its pIC50 is 6.96.

`CC[C@H](C)[C@@H]1NC(=O)[C@H](CC(C)C)N(C)C(=O)C[C@@H](C(=O)N2CCCC2)N(C)C(=O)[C@H](C2CCCC2)N(C)C(=O)C2(CCCC2)NC(=O)[C@@H]2CCCN2C(=O)[C@H](CCc2ccc(C(F)(F)F)c(Cl)c2)NC(=O)CN(C)C(=O)[C@H](C2CCCC2)N(C)C(=O)[C@@H]2CCN2C(=O)[C@H](C)N(C)C1=O` [Compound 201] ([NMeL]I[NMeA][Aze][NMeGly(cPent)][Sar][hPhe(3-Cl-4-CF3)]P[Ac5c][NMeGly(cPent)][NMeD]-Pyrrolidide; lactam N-11) was tested. Which pIC50 did it give?
Its pIC50 is 9.24.

With `CC[C@H](C)[C@@H]1NC(=O)[C@H](CC(C)C)N(C)C(=O)C[C@@H](C)N(C)C(=O)[C@H](C2CCCCC2)N(C)C(=O)C2(CCC2)NC(=O)[C@@H]2CC(F)(F)CN2C(=O)[C@H](CCc2cc(F)c(C(F)(F)F)c(F)c2)NC(=O)CN(C)C(=O)[C@H](Cc2ccc(C(F)(F)F)cc2)N(CC)C(=O)[C@@H]2CCN2C(=O)[C@H](C)NC1=O` [Compound 203] (cyclo(A[Aze][NEtPhe(4-CF3)][Sar][hPhe(3,5-F2-4-CF3)][Pro(4,4-F2)][Ac4c][NMeChg][NMedβ3hAla][NMeL]I)) as the compound, how does the pIC50 read?
Its pIC50 is 7.51.

`CC[C@H](C)[C@@H]1NC(=O)[C@H](CC(C)C)N(C)C(=O)C[C@@H](C)NC(=O)[C@H](C(C)C)N(C)C(=O)C2(CCCC2)NC(=O)[C@@H]2CCCN2C(=O)[C@H](CCc2ccc(C(F)(F)F)c(Cl)c2)NC(=O)CN(C)C(=O)[C@H](Cc2ccc(Cl)cc2)N(C)C(=O)[C@@H]2CCN2C(=O)CN(C)C1=O` [Compound 207] (cyclo([Ac5c][NMeV][d(β3hA)][NMeL]I[Sar][Aze][NMePhe(4-Cl)][Sar][hPhe(3-Cl-4-CF3)]P)) was tested. Which pIC50 did it give?
The pIC50 was 8.52.

With `CC[C@H](C)[C@@H]1NC(=O)[C@H](C)N(C)C(=O)C[C@@H](C)N(C)C(=O)[C@H](CC(C)C)NC(=O)[C@H](Cc2ccccc2)N(C)C(=O)[C@H](CC(C)C)NC(=O)[C@H](CCc2ccc(C(F)(F)F)cc2)NC(=O)CN(C)C(=O)[C@H](Cc2ccc(Cl)cc2)N(C)C(=O)CN(C)C(=O)CN(C)C1=O` [Compound 214] (cyclo(I[Sar][Sar][NMePhe(4-Cl)][Sar][hPhe(4-CF3)]L[NMeF]L[NMedβ3hAla][NMeA])) as the compound, how does the pIC50 read?
Its pIC50 is 6.55.
